Results as given in US11969730B2, “Apparatus for sensor-based examination of biological cells” (FRAUNHOFER-GESELLSCHAFT ZUR FÖRDERUNG DER ANGEWANDTEN …, priority 2017, dated 2024).

Experiments:
HaCaT cells [1] = experiment: impedimetric toxicity study (cytotoxicity assay) with confluent HaCaT cells on electrode array; assay type: cell-based, human; details: 32 kHz; increasing concentrations; applied 24 h after thawing or seeding; 37° C.; cryopreserved (7 days, −80° C.) and newly seeded cells
Procedure: IZI at 32 kHz for confluent HaCaT cells that were incubated (cytotoxicity assay) at the time t=0 h with increasing concentrations of CdCl2.
The cell density was identical in both cases. Increasing concentrations of the heavy metal salt CdCl2 served as the chemical model toxin. The assay was carried out 24 h after thawing, respectively seeding.
The cell response to the addition of CdCl2 is documented with reference to the time profile of the normed impedance at a measurement frequency of 32 kHz. […] The time developments, also highly characteristic of the impedance after the addition of CdCl2 to the confluent cell layers for every concentration of CdCl2 for the cryopreserved cells are indistinguishably similar to those of the newly seeded cells.

HaCaT cells [2] = experiment: impedimetric readout of adhesion of HaCaT cells to the electrode surface after cryopreservation and thawing; assay type: cell-based, human; details: 10% by volume in the freezing medium; cryopreservation over 5 weeks at −80° C.; capacitance at 40 kHz
Procedure: The cell density on the sensor surface is 450,000 cells/cm^2 (T=37° C.) in both cases. The decrease in the capacitance reflects the increasing electrode coverage.
To check the viability state of the frozen cells and then thawed again, the kinetics of the adhesion of human skin cells (keratinocytes, HaCaT cells) to the electrode surface (of gold) after a cryopreservation of more than five weeks at −80° C. were tracked directly after thawing (revitalization) with time resolution via an impedimetric readout (see FIG. 2A). The time development of the capacitance C of the total system at a measurement frequency of 40 kHz is in linear dependence on the occupation of the electrode with adherent cells and thus reflects the progressing process of the cell adhesion.
The culture medium is modeled on the freezing medium after revitalizing the cells in the chemical composition. Variable DMSO contents were selected to freeze the cells to be able to directly optimize the freezing medium for the respective cell line.

| Structure (SMILES) | time profile of the normed impedance after addition of CdCl2 (HaCaT cells [1]) | effect on the cell viability after thawing (HaCaT cells [2]) |
| --- | --- | --- |
| [Cl][Cd][Cl] [CdCl2] | decreases in dependence on the dosage |  |
| C[S+](C)[O-] [DMSO] |  | no negative effect |
